Earlier results as cited in patent US6767895B2 (priority 2000, dated 2004).

Conditions: in vivo; cited from earlier work

Substance: contulakin-G
- potency in inhibiting pain relative to neurotensin: significantly more potent than neurotensin
